Here are results for 35 molecules from a melting point compilation (Tetko et al.; mined from patent text by program, amines drawn as free bases though some values may be those of a salt).

Consider `Cc1cc2c(cc1S(N)(=O)=O)S(=O)(=O)NC(c1cccnn1)=N2`, for which the melting point lay in the range of 330 to 335 °C.

Take `CN(C)CCc1c[nH]c2ccc(CCC(=O)O)cc12`: the melting point lay in the range of 195 to 200 °C.

Turning to `CN(C)C(=O)Oc1ccc2c(c1)N(Cc1ccccc1)CCC2`, the melting point worked out at 104 °C.

Turning to `O=C(O)CN1C(=O)C(=Cc2c(-c3ccccc3)[nH]c3ccccc23)SC1=S`, the melting point was in the range of 258 to 262 °C.

Molecule `COc1ccc2[nH]nc(N3CCN(C[C@@H](O)COc4cccc(-c5noc6ccsc56)c4)CC3)c2c1` gave a melting point of 84 to 86 °C.

Molecule `CC(C)CC(C(=O)O)c1ccc(-c2ccc(C(F)(F)F)cc2)c(OCC2CC2)c1` (stereo not given) came in with a melting point of 142 to 143 °C.

In the case of `CN(C)C(=N[N+](=O)[O-])N(C#N)Cc1cnc(Cl)s1`, the melting point lay in the range of 152 to 155 °C.

Molecule `COc1cc(Nc2nccc(Nc3ccc(N4CCN(C)CC4)cc3)n2)cc(OC)c1OC` displayed a melting point of 104 °C.

`CCCCCCCCN1C(=O)NC2(CC(C)(CC)N(CCOC(=O)c3ccccc3)C(C)(CC)C2C)C1=O` (stereo not given) displayed a melting point of 123 to 124 °C.

Turning to `COc1cc([N+](=O)[O-])c2ncccc2c1OCC(F)(F)F`, the melting point is 109 to 115 °C.

In turn, `COCCCCNC(=O)C(c1ccccc1)c1ccccc1` came in with a melting point of 75.5 to 76.8 °C.

For `CC(=O)Nc1cccc2c1CCN(C(C)=O)C2`, the melting point was in the range of 154 to 156 °C.

Consider `CCCN(Cc1ccc(-c2ccccc2-c2nc(=O)o[nH]2)cc1)c1nn(C)cc1C(=O)OCC`, for which the melting point is 182 to 183 °C.

The molecule `Cn1nc(-c2cccc(C(F)(F)F)c2)c(Cl)c1C(=O)O` came in with a melting point of 180 to 183 °C.

For the molecule `COc1cc2nc(N3CCN(C#N)CC3)nc(N)c2cc1OC`, the melting point was determined as 215 °C.

Consider `O=C(Cc1ccccc1)c1ccc(OCCN2CCCC2)cc1`, for which the melting point was in the range of 77 to 78 °C.

The molecule `COc1cc(C(=O)O)ccc1CN1CCOc2ccc(NC(=O)CC3CCCC3)cc21` gave a melting point of 224 to 225 °C.

In turn, `CC(C)(C)Sc1ssc(=S)c1Cl` gave a melting point of 45 °C.

The molecule `CC(C)=CCC/C(C)=C/CSc1nc2cc(C(F)(F)F)ccc2[nH]1` registered a melting point of 106 to 108 °C.

With `CCS(=O)(=O)N[C@H](C(=O)NCCc1ccc(OC/C=C\c2ccc(Cl)cc2)c(OC)c1)C(C)C`, the melting point lay within 141 to 143 °C.

`CCCCC(=O)NCc1ccc2c(c1)C(=O)N(C1CCC(=O)NC1=O)C2=O` (stereo not given) gave a melting point of 184 to 186 °C.

With `CCC(OC(=O)COC)c1ccc(Cl)c2nc3n(c12)CCCN3c1ccc(Cl)cc1Cl` (stereo not given), the melting point fell in the range of 156 to 158 °C.

The molecule `COc1cccc(-n2[nH]c(Cc3c(C)n(C(=O)c4ccc(Cl)cc4)c4ccc(OC)cc34)cc2=O)c1` gave a melting point of 102 to 104 °C.

`CC1c2ccccc2-c2sc(Br)cc2N1S(=O)(=O)c1ccc(O)cc1` (stereo not given) returned a melting point of 209 to 211 °C.

As to `COc1cc(-c2cc(=O)c3ccc(OCC(O)CNC(C)(C)C)cc3o2)cc(OC)c1OC` (stereo not given), the melting point lay within 119 to 120 °C.

As for `Cn1nc(-c2ccccc2Cl)nc1-c1ccccc1Cl`, the melting point was in the range of 82 to 85 °C.

On to `CC1CC(=NNc2ccccc2)c2ncc(C(=O)O)c(=O)n2C1` (stereo not given), for which the melting point lay within 255 to 256 °C.

On to `O=C(O)c1ccccc1OCCN1CCC(c2cn(CCC3COCCO3)c3ccccc23)CC1` (stereo not given), for which the melting point was in the range of 139 to 140 °C.

As to `Cc1ccc(C(=O)NC(NC(=S)Nc2cccc(F)c2)C(F)(F)F)cc1` (stereo not given), the melting point fell in the range of 205 to 206 °C.

Take `N#Cc1cccc(C=Cc2ccc(Cl)c(Cl)c2)n1`: the melting point was in the range of 124 to 125 °C.

With `COc1cc2[nH]c(=O)[nH]c(=O)c2cc1Cl`, the melting point was in the range of 356 to 358 °C.

`Cc1cc(-c2ccc(OC(C)C(O)CCc3cccnc3)cc2)ccc1C#N` (stereo not given) came in with a melting point of 93.5 to 94.5 °C.

`Cc1ccc(CON2C(C(F)(F)F)C(C(=O)Nc3ccccc3)=CN2C)c(C)c1` (stereo not given) had a melting point of 123 to 125 °C.

Take `Cc1nc2c(O)cc(C(=O)N(C)C)cc2n1COCC[Si](C)(C)C`: the melting point lay within 150 to 151 °C.

In turn, `Cc1cccnc1C=CCN1CCc2nc(N)sc2CC1` displayed a melting point of 188 to 190 °C.
